Laboratory results reported in article PMC3573846 (International journal of pharmaceutics, 2012).

Tests used:
P-gp at BBB = details: mouse, in vivo; cited from earlier work
[1] = test system: P-gp and Bcrp1 at the mouse BBB; details: zosuquidar 25 mg/kg or Ko143 10 mg/kg i.v. 30 min prior to pazopanib 5 mg/kg i.v.; 60 min post dose
Bcrp1 = target: T1, Bcrp1 (Mus musculus, UniProt Q7TMS5); assay: Bi-directional transport across MDCK-Bcrp1 monolayers; type: in vitro ADME, murine; details: mouse, Efflux ratio, MDCK-Bcrp1, 5 μM pazopanib, no inhibitor
T1 sequence (Q7TMS5 1-657): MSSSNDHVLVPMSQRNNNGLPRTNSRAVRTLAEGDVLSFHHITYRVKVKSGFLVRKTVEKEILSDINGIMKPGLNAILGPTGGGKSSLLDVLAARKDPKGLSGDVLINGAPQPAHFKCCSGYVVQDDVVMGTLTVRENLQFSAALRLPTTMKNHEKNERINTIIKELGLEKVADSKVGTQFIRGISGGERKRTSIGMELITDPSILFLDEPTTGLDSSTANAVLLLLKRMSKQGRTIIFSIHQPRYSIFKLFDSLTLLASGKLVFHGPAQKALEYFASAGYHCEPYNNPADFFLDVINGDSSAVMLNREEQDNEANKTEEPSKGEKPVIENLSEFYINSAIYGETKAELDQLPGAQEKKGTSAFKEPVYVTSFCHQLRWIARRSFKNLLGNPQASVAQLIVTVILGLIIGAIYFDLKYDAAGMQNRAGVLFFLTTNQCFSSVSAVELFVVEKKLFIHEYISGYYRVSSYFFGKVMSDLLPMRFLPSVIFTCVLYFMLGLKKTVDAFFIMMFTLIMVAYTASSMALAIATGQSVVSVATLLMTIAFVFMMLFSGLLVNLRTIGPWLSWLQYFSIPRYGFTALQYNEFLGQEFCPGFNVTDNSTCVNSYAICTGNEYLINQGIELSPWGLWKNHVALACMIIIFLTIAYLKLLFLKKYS

Bcrp1 (murine) = target: T2, Bcrp1 (murine) (Mus musculus, UniProt Q7TMS5); assay: as above; type: in vitro ADME; details: dog
T2 sequence (Q7TMS5 1-657): T1 sequence (Q7TMS5 1-657)

[2] = target: T3, Bcrp1, MDCK-Bcrp1 cell monolayers (Mus musculus, UniProt Q7TMS5); assay: as above; type: in vitro ADME, murine
T3 sequence (Q7TMS5 1-657): T1 sequence (Q7TMS5 1-657)

in vivo = details: male, mouse, 5 mg/kg
[3] = target: P-gp (MDR1), MDCKII-MDR1 transfected cells (Homo sapiens, UniProt P08183); assay: Cellular accumulation of pazopanib in MDCKII-MDR1 vs WT cells; type: in vitro ADME; details: 0.1 μM pazopanib, 60 min, no inhibitor
[4] = Bi-directional transport across MDCK-WT monolayers; type: in vitro ADME, canine; details: dog
P-gp (MDR1) = P-gp (MDR1) (Homo sapiens, UniProt P08183); assay: Bi-directional transport across MDCK-MDR1 monolayers; type: in vitro ADME; details: dog
[5] = target: P-gp (MDR1), MDCK-MDR1 cell monolayers (Homo sapiens, UniProt P08183); assay: as above; type: in vitro ADME
[6] = Brain accumulation and plasma pharmacokinetics of pazopanib in FVB mice; details: for half-life: 5 mg/kg
[7] = target: T4, Bcrp1, MDCKII-Bcrp1 transfected cells (Mus musculus, UniProt Q7TMS5); assay: Cellular accumulation of pazopanib in MDCKII-Bcrp1 vs WT cells; type: in vitro ADME, murine; details: 0.1 μM pazopanib, 60 min, no inhibitor
T4 sequence (Q7TMS5 1-657): T1 sequence (Q7TMS5 1-657)

[8] = in vitro MDCKII cell monolayers
[9] = brain, pazopanib 5 mg/kg i.v. + elacridar (GF120918) 10 mg/kg
[10] = brain, pazopanib alone, 5 mg/kg i.v. bolus
[11] = plasma, pazopanib 5 mg/kg i.v. + elacridar (GF120918) 10 mg/kg
[12] = plasma, pazopanib alone, 5 mg/kg i.v. bolus

Chain of P-gp (MDR1) (P08183 whole entry): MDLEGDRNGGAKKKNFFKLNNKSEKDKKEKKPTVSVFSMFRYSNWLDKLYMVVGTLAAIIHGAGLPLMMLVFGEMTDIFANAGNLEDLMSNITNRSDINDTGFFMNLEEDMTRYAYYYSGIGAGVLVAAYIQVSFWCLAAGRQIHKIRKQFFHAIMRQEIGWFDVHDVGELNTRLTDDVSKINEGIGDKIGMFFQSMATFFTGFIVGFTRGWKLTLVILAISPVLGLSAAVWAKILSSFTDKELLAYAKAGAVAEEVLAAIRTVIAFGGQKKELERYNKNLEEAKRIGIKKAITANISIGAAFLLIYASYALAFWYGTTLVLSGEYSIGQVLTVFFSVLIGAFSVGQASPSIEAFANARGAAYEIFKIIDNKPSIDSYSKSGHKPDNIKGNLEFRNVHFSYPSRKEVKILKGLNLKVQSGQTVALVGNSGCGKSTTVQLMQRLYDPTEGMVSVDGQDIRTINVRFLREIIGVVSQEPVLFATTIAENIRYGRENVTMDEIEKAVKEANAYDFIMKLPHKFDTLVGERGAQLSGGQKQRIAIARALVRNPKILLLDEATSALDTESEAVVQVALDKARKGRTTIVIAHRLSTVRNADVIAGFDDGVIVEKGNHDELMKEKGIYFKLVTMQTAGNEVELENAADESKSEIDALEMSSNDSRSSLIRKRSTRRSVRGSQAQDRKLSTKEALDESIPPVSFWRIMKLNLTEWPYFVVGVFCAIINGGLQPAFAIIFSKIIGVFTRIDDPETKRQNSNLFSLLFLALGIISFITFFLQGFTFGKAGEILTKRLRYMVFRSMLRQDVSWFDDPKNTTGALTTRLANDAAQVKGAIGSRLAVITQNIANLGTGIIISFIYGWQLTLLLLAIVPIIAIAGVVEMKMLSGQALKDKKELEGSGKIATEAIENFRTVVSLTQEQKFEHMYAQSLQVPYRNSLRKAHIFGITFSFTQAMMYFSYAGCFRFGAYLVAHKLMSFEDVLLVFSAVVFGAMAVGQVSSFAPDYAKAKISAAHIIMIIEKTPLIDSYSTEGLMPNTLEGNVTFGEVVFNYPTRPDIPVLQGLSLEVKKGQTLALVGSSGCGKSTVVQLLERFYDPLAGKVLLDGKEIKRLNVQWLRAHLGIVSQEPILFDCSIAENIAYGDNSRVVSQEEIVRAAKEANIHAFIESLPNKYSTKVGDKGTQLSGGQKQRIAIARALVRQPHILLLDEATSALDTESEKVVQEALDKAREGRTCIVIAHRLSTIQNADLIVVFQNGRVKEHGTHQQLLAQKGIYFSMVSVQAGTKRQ
Chain of P-gp (MDR1), MDCK-MDR1 cell monolayers (P08183 whole entry): as above
Chain of P-gp (MDR1), MDCKII-MDR1 transfected cells (P08183 whole entry): as above

In the case of O[C@@H](COc1cccc2ncccc12)CN1CCN([C@@H]2c3ccccc3[C@@H]3[C@H](c4ccccc42)C3(F)F)CC1 [zosuquidar], the “Enhanced brain penetration of paclitaxel upon co-administration” value (P-gp at BBB) is listed as ~ 5.6 fold and the “Effect on pazopanib brain concentration” value [1] is listed as “did not significantly alter”.
Compound Cc1ccc(Nc2nccc(N(C)c3ccc4c(C)n(C)nc4c3)n2)cc1S(N)(=O)=O [Pazopanib] has an efflux ratio at 240 min, 5 μM (Bcrp1) of 47, a Papp A→B at 240 min, 5 μM (Bcrp1 (murine)) of 0.2 ± 0.04 ×10⁻⁶ cm/s and a Papp B→A at 240 min, 5 μM (Bcrp1 (murine)) of 9.71 ± 0.09 ×10⁻⁶ cm/s. For the same compound, the efflux ratio at 240 min, 5 μM (Bcrp1 (murine); with Ko143 200 nM, Efflux ratio, MDCK-Bcrp1, 5 μM pazopanib + 200 nM Ko143) was 1.35, the Efflux ratio ([2]; MDCK-Bcrp1, 5 μM pazopanib, no inhibitor) was 47.1 and the “Substrate classification for Bcrp1” value [2, 8] was “high affinity substrate”. It also gave a k el (in vivo; FVB wild type, brain, iv) of 0.000103 s⁻¹, a Kp (in vivo; FVB wild type, brain/plasma, iv) of 0.015 and a Vd (in vivo; FVB wild type, plasma, iv) of 0.286 L/kg. It also gave a clearance (in vivo; FVB wild type, plasma, iv) of 2.38 mL/min/kg, a k el (in vivo; FVB wild type, plasma, iv) of 0.000139 s⁻¹ and a concentration at 15 min (in vivo; FVB, brain, intravenous) of 293 ± 52 ng/g. The concentration at 30 min (in vivo; FVB, brain, intravenous) was 157 ± 2 ng/g, the concentration at 60 min (in vivo; FVB, brain, intravenous) was 95 ± 11 ng/g and the half-life (in vivo; FVB, brain, iv) was 1.9 h. It also gave a Kp at 30 min (in vivo; FVB, brain/plasma, intravenous) of 0.0113 ± 0.005, a Kp at 60 min (in vivo; FVB, brain/plasma, intravenous) of 0.009 ± 0.001 and a half-life (in vivo; FVB, plasma, iv) of 1.4 h. The “Pazopanib accumulation in MDR1 overexpressing cells relative to WT cells” value [3] was 60 % of WT cells, the Papp A→B at 240 min, 5 μM [4] was 2.92 ± 0.33 ×10⁻⁶ cm/s and the Papp B→A at 240 min, 5 μM [4] was 3.1 ± 0.22 ×10⁻⁶ cm/s. The efflux ratio at 240 min, 5 μM [4] was 1.06, the Papp A→B at 240 min, 5 μM (P-gp (MDR1); MDCK-MDR1) was 3.73 ± 0.17 ×10⁻⁶ cm/s and the Papp B→A at 240 min, 5 μM (P-gp (MDR1); MDCK-MDR1) was 6.3 ± 0.56 ×10⁻⁶ cm/s. The efflux ratio at 240 min, 5 μM (P-gp (MDR1); MDCK-MDR1, Efflux ratio, MDCK-MDR1, 5 μM pazopanib, no inhibitor) was 1.7, the Efflux ratio ([5]; MDCK-MDR1, 5 μM pazopanib + 1 μM zosuquidar (LY)) was 1.07 and the “Substrate classification for P-gp” value [5, 8] was “moderate substrate”. The “AUC (0 → tlast)” value [6, 9] was 0.042 ± 0.003 mg·min/mL, the λz [6, 9] was 0.25 h⁻¹ and the “AUC (0 → tlast)” value [6, 10] was 0.020 ± 0.001 mg·min/mL. The half-life [6, 10] was 1.89 h, the “AUC (0 → tlast)” value [6, 11] was 1.029 ± 0.071 mg·min/mL and the Volume of distribution [6, 11] was 0.39822 L/kg. For the same compound, the clearance [6, 11] was 2.49 mL/min/kg, the λz ([6]; plasma, pazopanib 5 mg/kg i.v. + elacridar (GF120918) 10 mg/kg i.v. 30 min prior) was 0.38 h⁻¹ and the “AUC (0 → tlast)” value [6, 12] was 1.356 ± 0.043 mg·min/mL. For the same compound, the half-life [6, 12] was 1.39 h and the “Pazopanib accumulation in Bcrp1 overexpressing cells relative to WT cells” value [7] was “approximately 5 % of WT cells”.
For COc1ccc2c3c([nH]c2c1)[C@H](CC(C)C)N1C(=O)[C@H](CCC(=O)OC(C)(C)C)NC(=O)[C@@H]1C3 [Ko143], the “Effect on pazopanib brain concentration” value [1] was “did not significantly alter”.
